Data as given in patent US20240182443A1, “POLYMORPHIC FORMS OF COMPOUND AND PREPARATION METHOD THEREFOR AND APPLICATION THEREOF” (SHANGHAI MEIYUE BIOTECH DEVELOPMENT CO., LTD., priority 2021, published 2024).
In brackets after ≈: the same amount, converted by molar mass.

Columns and labels:
Assay type in all cases: physicochemical
[1] = DVS (dynamic vapor sorption) hygroscopicity test with XRPD of the post-DVS sample; conditions: for hygroscopicity (DVS): within a range of 0-80% RH, 25° C.
Experimental: DVS tests were carried out using a dynamic vapor sorption instrument (Vsorp-Enhanced, proUmid) under the following conditions: adding a sufficient amount of a sample to the Vsorp-Enhanced instrument for simulation of dynamic vapor sorption, recording changes in weight at 25° C. with different humidity equilibrium levels, and subjecting the post-DVS test sample to an XRPD test.
The crystalline form III was characterized by XRPD, PLM, DSC, TGA and DVS. […] (FIG. 8). […] (FIG. 8). The DVS results (FIG. 9) show slight hygroscopicity at only 0.22% within a range of 0-80% RH.
The crystalline form VII was characterized by XRPD, PLM, DSC, TGA and DVS.

[2] = Solid stability and chemical stability of crystalline forms III and VII (60° C./sealed and 40° C./75% RH/open, 7 days; HPLC, XRPD); conditions: for chemical stability / crystalline form change (XRPD): 40° C./75% RH (open); for chemical stability / crystalline form change (XRPD) / physical and chemical stability / Purity-7 days (Area %): 7 days; for physical and chemical stability: 60° C. (sealed); for Purity-7 days (Area %) / Initial purity (Area %): HPLC; for Initial purity (Area %): before stability storage
Experimental: The crystalline forms III and VII were subjected to solid stability and chemical stability experiments under conditions of 60° C./sealed and 40° C./75% RH/open for 7 days. […] The amount of the crystalline form IV that formed in the crystalline form III is slightly greater than that in the crystalline form VII.

[3] = Test for effects of humidity on crystalline forms III and VII at 40° C. (XRPD); conditions: for physical stability (XRPD) / crystalline form change (XRPD): 40° C., 23 h; for physical stability (XRPD): 70% RH; for crystalline form change (XRPD): 80% and 90% RH; for physical stability: at 70% RH or less
Experimental: Therefore, they were further studied at 40° C. for the effects of humidity.

[4] = Solubility test in biological media (SGF, FaSSIF, FeSSIF) with XRPD of samples after the test; conditions: for solubility at 0.5 h / solubility at 24 h / solubility at 2 h: thermodynamic from solid
Experimental: (§1) The solubility of both the crystalline forms III and VII increased with decreasing pH value of the biological medium. Both the crystalline forms were most soluble in SGF (0.323 mg/mL VS 0.183 mg/mL @ 0.5 h) and least soluble in FaSSIF (0.034 mg/mL VS 0.025 mg/mL @ 0.5 h). […] Both the crystalline forms degraded to a certain extent as the stirring continued in the solubility test. The crystalline forms of the crystalline forms III and VII in all the three biological media changed. […] Thus, the compound is unstable in biological media (Table 13).

[5] = HPLC purity of the solubility test samples (stability in biological media); conditions: for HPLC (24 h): calculated as 100% HPLC purity before; for HPLC purity change: all three biological media, calculated as 100% HPLC purity before standing in the media
Experimental: as §1

[6] = Competitive slurrying experiment of crystalline forms I, III, VII and IX in butanone and isopropyl acetate; conditions: VII and IX slurried with butanone and isopropyl acetate
Experimental: A competitive slurrying experiment was carried out by slurrying a certain amount of each of the crystalline forms I, III, VII and IX with butanone and isopropyl acetate.

Structure (SMILES)	crystalline form after the DVS test (XRPD) [1]	hygroscopicity (DVS) [1]	chemical stability [2]	crystalline form change (XRPD) [2]	physical and chemical stability [2]	Purity-7 days (Area %) ([2]; 40° C./75% RH, open)	Purity-7 days (Area %) ([2]; 60° C., sealed)	Initial purity (Area %) [2]	physical stability (XRPD) [3]	crystalline form change (XRPD) [3]	physical stability [3]	crystalline form after solubility test (XRPD) ([4]; FaSSIF)	pH ([4]; FaSSIF, 0.5 h)	Solubility ([4]; FaSSIF, 2 h)	pH ([4]; FaSSIF, 2 h)	pH ([4]; FaSSIF, 24 h)	crystalline form after solubility test (XRPD) ([4]; FeSSIF)	pH ([4]; FeSSIF, 0.5 h)	pH ([4]; FeSSIF, 2 h)	pH ([4]; FeSSIF, 24 h)	also measured
COc1cc2nn([C@H]3CC[C@](C)(O)CC3)cc2cc1NC(=O)c1cccc(C)[n+]1[O-] [crystalline form III, 2-((2-(trans-4-hydroxy-cis-4-methylcyclohexyl)-6-methoxy-2H-indazol-5-yl)carbamoyl)-6-methylpyridine 1-oxide]	transformed into a crystal mixture of the crystalline forms III and IV	0.22%	chemically stable	a small amount of hydrate crystalline form IV formed	physically and chemically stable	99.96 Area %	99.97 Area %	99.96 Area %	physically stable	a small amount of hydrate crystalline form IV formed	physically stable	transformed into the crystalline form IV	6.47	9 µg/mL (≈ 21.9 µM)	6.47	6.45	a crystal mixture of the crystalline forms IV and XIII	4.88	4.92	4.94	solubility at 0.5 h ([4]; FaSSIF, 0.5 h): 34 µg/mL (≈ 82.8 µM); solubility at 24 h ([4]; FaSSIF, 24 h): 7 µg/mL (≈ 17.1 µM); Solubility ([4]; FeSSIF, 0.5 h): 105 µg/mL (≈ 256 µM); Solubility ([4]; FeSSIF, 2 h): 67 µg/mL (≈ 163 µM); Solubility ([4]; FeSSIF, 24 h): 58 µg/mL (≈ 141 µM); crystalline form after solubility test (XRPD) ([4]; SGF): transformed into the crystalline form IV; pH ([4]; SGF, 0.5 h): 1.09; Solubility ([4]; SGF, 2 h): 289 µg/mL (≈ 704 µM); pH ([4]; SGF, 2 h): 1.07; Solubility ([4]; SGF, 24 h): 89 µg/mL (≈ 217 µM); pH ([4]; SGF, 24 h): 1.24; solubility at 0.5 h ([4]; SGF, simulated gastric fluid, 0.5 h): 323 µg/mL (≈ 787 µM); solubility at 0.5 h relative to crystalline form VII ([4]; all three biological media, 0.5 h): 1.5 times; HPLC (24 h) ([5]; FaSSIF): 97.99%; HPLC (24 h) ([5]; FeSSIF): 96.89%; HPLC (24 h) ([5]; SGF): 99.69%; HPLC purity change [5]: decreased to a certain extent
COc1cc2nn([C@H]3CC[C@](C)(O)CC3)cc2cc1NC(=O)c1cccc(C)[n+]1[O-] [crystalline form VII, 2-((2-(trans-4-hydroxy-cis-4-methylcyclohexyl)-6-methoxy-2H-indazol-5-yl)carbamoyl)-6-methylpyridine 1-oxide]	remained the same as that before the DVS test	0.29%	chemically stable	a small amount of hydrate crystalline form IV formed	physically and chemically stable	99.93 Area %	99.94 Area %	99.92 Area %	physically stable	a small amount of hydrate crystalline form IV formed	physically stable	transformed into the crystalline form IV	6.42	29 µg/mL (≈ 70.7 µM)	6.44	6.48	transformed into the crystalline form IV	4.86	4.90	4.91	crystalline form resulting from competitive slurrying [6]: can be produced from various slurrying processes; Solubility ([4]; FaSSIF, 0.5 h): 25 µg/mL (≈ 60.9 µM); Solubility ([4]; FaSSIF, 24 h): 7 µg/mL (≈ 17.1 µM); solubility at 0.5 h ([4]; FeSSIF, 0.5 h): 68 µg/mL (≈ 166 µM); solubility at 2 h ([4]; FeSSIF, 2 h): 65 µg/mL (≈ 158 µM); solubility at 24 h ([4]; FeSSIF, 24 h): 65 µg/mL (≈ 158 µM); crystalline form after solubility test (XRPD) ([4]; SGF): a crystal mixture of the crystalline forms IV and XV; Solubility ([4]; SGF, 0.5 h): 183 µg/mL (≈ 446 µM); pH ([4]; SGF, 0.5 h): 1.23; pH ([4]; SGF, 2 h): 1.16; pH ([4]; SGF, 24 h): 1.26; solubility at 2 h ([4]; SGF, simulated gastric fluid, 2 h): 147 µg/mL (≈ 358 µM); solubility at 24 h ([4]; SGF, simulated gastric fluid, 24 h): 92 µg/mL (≈ 224 µM); HPLC (24 h) ([5]; FaSSIF): 93.49%; HPLC (24 h) ([5]; FeSSIF): 93.13%; HPLC (24 h) ([5]; SGF): 99.46%; HPLC purity change [5]: decreased to a certain extent
